Measured values published in patent US12428666B2, “Compositions and methods related to kethoxal derivatives” (The University of Chicago, priority 2018, dated 2025).
Entries after “also recorded” stand apart in the source; their conditions may differ.

Key:
Pol II = experiment: ssDNA-seq after Pol II inhibitor treatment; type: cell-based, human; conditions: for ssDNA peak number: 2 h, control more than 43,000; for distribution of ssDNA-seq peaks on gene coding regions: after inhibitor treatment vs control
Description: N3-kethoxal enables genome-wide single-stranded DNA mapping (ssDNA-seq). Taking advantage of the sensitivity and the selectivity of N3-kethoxal towards single-stranded nucleic acids, the inventors first applied N3-kethoxal to map single-stranded regions of the genome, which has not been previously achieved. Human embryonic kidney (HEK) cells were cultured in N3-kethoxal-containing medium for 10 min to facilitate labelling before harvested. Genomic DNA was then purified and subjected to biotinylation reaction through “click” chemistry. Biotinylated DNA was purified and fragmented, followed by immunoprecipitation with streptavidin-coated beads. Enriched DNA and their corresponding inputs was used to make libraries, which were then sequenced and aligned.
ssDNA is performed by: (1) Prepare labeling medium by adding 5 μL pure N3-kethoxal to 5 mL pre-warmed cell culture medium for each 10 cm dish. (2) Incubate cells in the labeling medium for 10 min at 37° C., 5% CO2. (3) For transcription inhibition experiments, cells were treated for 2 h under 100 μM DRB or 1 μM triptolide before incubated in N3-kethoxal-containing medium. (4) Harvest cells after the 10 min incubation, isolate total DNA from cells by PureLink genomic DNA mini kit according to the manufacturer's protocol. (5) Suspend 5 μg total DNA in 85 μL H2O, then add 10 μL 10×PBS and 5 μL 20 mM DBCO-PEG4-biotin (DMSO solution), incubate the mixture at 37° C. for 2 h. (6) Add 5 μL RNase A to the reaction mixture, incubate the mixture at 37° C. for another 15 min. (7) Recover DNA from the reaction mixture by DNA Clean & Concentrator kit according to the manufacturer's protocol.

guanine = experiment: Reaction of N3-kethoxal with RNA nucleic bases and RNA oligos (HPLC, MALDI-TOF); type: biochemical; conditions: 12 mer RNA oligo with 4 guanines
Description: The reaction of N3-kethoxal and RNA was generally performed with the following protocol: 100 pmol RNA oligo and 1 μmol N3-kethoxal was incubated in total 10 μL solution in PBS buffer at 37° C. for 10 mins. […] The purified labelled RNA can be used for further studies such as mass spectrometry, gel electrophoresis and copper-free click reaction with biotin-DBCO.
MALDI-TOF-MS analysis of N3-kethoxal labelled RNA oligo. […] Meanwhile the buffer exchange occurred from PBS buffer to tris buffer that can be directly used in MALDI-TOF-MS experiment without extra desalt step. One microliter of product solution was mixed with one microliter matrix which include 8:1 volume ratio of 2′4′6′-trihydroxyacetophenone (THAP, 10 mg/mL in 50% CH3CN/H2O):ammonium citrate (50 mg/mL in H2O). Then the mixture was spotted on the MALDI sample plate, dried and analyzed by Bruker Ultraflextreme MALDI-TOF-TOF Mass Spectrometers.
The product of N3-kethoxal with for RNA nucleic bases was analyzed using LC-6AD (Shimadzu, Japan) HPLC instrument, which equipped with an Inertsil ODS-SP column ([…], 250×4.6 mm) (GL Science Inc. Japan). The phase A (100 mM TEAA buffer, pH=7.0) and phase B (CH3CN) were used as eluents with a flow rate of 1 mL/min at 35° C. (B conc.: 5-5-30%/0-5-30 min).

[1] = system: mRNA secondary structures in live cells; experiment: KARRI after translation inhibitor treatment; type: cell-based; conditions: 100 μg/mL cycloheximide or 3 μg/mL harringtonine, 37° C., 10 min
Description: KARRI is performed by: (1) Suspend live cells in 1% formaldehyde solution at 1×10^6/mL and incubate at room temperature for 10 min with gentle rotate. Then quench this reaction by adding glycine to a final concentration of 125 mM and rotate the mixture at room temperature for 5 min. For translation inhibitor treatment, cells were treated with 100 μg/mL cycloheximide or 3 μg/mL harringtonine at 37° C. for 10 min. (2) Collect and take 2×10^6 cells. Dilute N3-Kethoxal by 1:5 using DMSO. Make a labeling buffer by adding 10 μL N3-Kethoxal into 290 μL lysis buffer (10 mM Tris-HCl pH 8.0, 10 mM NaCl, 0.2 IGEPAL CA630) with 3 μL 100× proteinase inhibitor cocktail. (3) Suspend cells in labeling buffer and rotate at room temperature for 30 min, then centrifuge at 2500 g for 5 min at 4° C. to collect cells. (4) Wash cell pellets with 500 μL ice-cold lysis buffer for 3 times. (5) Suspend the pellet in 500 μL MeOH containing 10 μM dendrimers, rotate for 1 h at 37° C. Then centrifuge at 2500 g for 5 min at 4° C. to collect cells. (6) Wash cell pellet twice with 500 μL ice-cold lysis buffer. (7) Resuspend cells in 385 μL lysis buffer, add 50 μL 10% SDS, 30 μL proteinase K, 10 μL RNase inhibitor, 25 μL 500 mM K3BO3, shake at 65° C. for 2 h. (8) Add 500 μL phenol-chloroform to extract RNA and purify RNA by EtOH precipitation. […]

| Compound | distribution of ssDNA-seq peaks on gene coding regions (Pol II) | effect on in vivo RNA secondary structures (KARRI) [1] | other results |
| --- | --- | --- | --- |
| CC(C)[C@]12O[C@H]1[C@@H]1O[C@]13[C@]1(O[C@H]1C[C@H]1C4=C(CC[C@@]13C)C(=O)OC4)[C@@H]2O [Triptolide, triptolide] | most peaks on gene coding regions disappeared | – | ssDNA peak number (Pol II; 1 μM triptolide): ~3,700 |
| OC[C@H]1O[C@@H](n2cnc3cc(Cl)c(Cl)cc32)[C@H](O)[C@@H]1O [DRB, 5,6-dichloro-1-β-D-ribofuranosylbenzimidazole] | Stronger peaks were observed at TSS while peaks on gene body and TES were eliminated | – | ssDNA peak number (Pol II; 100 μM DRB): around 16,000 |
| Cc1ncccc1C(=O)n1ccnc1 [NAI, reference compound] | – | – | labelling of RNA oligo (MALDI-TOF molecular weight of product) (guanine): some oligoes were only reacted by one NAI and some were labelled by two or three |
| COC(=O)C[C@](O)(CCC(C)(C)O)C(=O)O[C@@H]1C(OC)=C[C@]23CCCN2CCc2cc4c(cc2[C@H]13)OCO4 [harringtonine] | – | undermined in vivo-specific structures and increased in vitro features; also recorded: in vivo-specific structures were undermined while some in vitro-specific features showed up | – |
| C[C@@H]1C[C@@H]([C@H](O)CC2CC(=O)NC(=O)C2)C(=O)[C@@H](C)C1 [cycloheximide] | – | undermined in vivo-specific structures and increased in vitro features | – |
